# Laboratory results: the supplement of paper PMC10307832
# Key:
# Assay in all cases: relative viability (nuclei count vs DMSO), 5 days (fraction); higher = more cells survive
# [1] = compound: C[C@]1(c2nc3c(C(N)=O)cccc3[nH]2)CCCN1 [Veliparib] + C[C@]1(O)C[C@@H](c2nc(-c3ccc4ccc(-c5ccccc5)nc4c3)c3c(N)nccn32)C1 [Linsitinib] (partner 1 µM)
# Outline: (§1)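 Lung cancer cell lines in 1536-well plates got either a single drug or a fixed anchor-drug dose together with five library-drug doses (not always all listed) in √10 steps, by pin tool, on the day after seeding. Nuclei were counted after 5 days, and relative viability is the treated-to-vehicle ratio of nuclei counts. Values are medians of duplicate plates.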
# [2] = compound: COC1=CC=C(C=C1)CN2C=CC3=C2C=C(C=C3)C(=O)NO + Cc1cc(Nc2cc(N3CCN(C)CC3)nc(Sc3ccc(NC(=O)C4CC4)cc3)n2)n[nH]1 [Tozasertib] (partner 0.1 µM)
# Outline: as §1
# [3] = compound: C[C@]1(c2nc3c(C(N)=O)cccc3[nH]2)CCCN1 [Veliparib] + CC1(C)CCC(c2ccc(Cl)cc2)=C(CN2CCN(c3ccc(C(=O)NS(=O)(=O)c4ccc(N[C@H](CCN5CCOCC5)CSc5ccccc5)c(S(=O)(=O)C(F)(F)F)c4)cc3)CC2)C1 [Navitoclax] (partner 0.5 µM)
# Outline: as §1
# [4] = compound: C[C@]1(c2nc3c(C(N)=O)cccc3[nH]2)CCCN1 [Veliparib] + CC(=O)c1c(C)c2cnc(Nc3ccc(N4CCNCC4)cn3)nc2n(C2CCCC2)c1=O [Palbociclib] (partner 0.5 µM)
# Outline: as §1
Cell Line,relative viability ([1]; first compound 0.02 µM),relative viability ([1]; first compound 0.06325 µM),relative viability ([1]; first compound 0.2 µM),relative viability ([1]; first compound 0.6325 µM),relative viability ([1]; first compound 2 µM),relative viability ([2]; first compound 0.08 µM),relative viability ([2]; first compound 0.253 µM),relative viability ([2]; first compound 0.8 µM),relative viability ([2]; first compound 2.53 µM),relative viability ([2]; first compound 8 µM),relative viability ([3]; first compound 0.02 µM),relative viability ([3]; first compound 0.06325 µM),relative viability ([3]; first compound 0.2 µM),relative viability ([3]; first compound 0.6325 µM),relative viability ([3]; first compound 2 µM),relative viability ([4]; first compound 0.02 µM),relative viability ([4]; first compound 0.2 µM),relative viability ([4]; first compound 0.6325 µM),relative viability ([4]; first compound 2 µM),relative viability ([4]; first compound 0.06325 µM)
PC-3 [JPC-3],0.929,0.921,0.917,0.883,0.972,0.861,0.912,0.921,0.88,0.908,0.742,0.77,0.801,0.749,0.734,0.54,0.493,0.566,0.543,
EKVX,0.948,0.912,0.952,0.86,1.02,0.374,0.369,0.409,0.372,0.36,0.814,0.974,0.884,0.891,0.819,,0.403,0.373,0.383,0.42
NCI-H520,0.984,1.03,0.966,0.922,1.04,,0.453,0.428,0.449,0.375,1.16,1.02,1.17,1.04,1.07,0.24,0.254,0.212,0.223,0.239
NCI-H1355,,0.746,0.832,0.76,0.849,,0.548,0.585,0.531,0.515,,0.872,0.9,0.904,0.971,0.305,0.375,0.417,0.402,0.396
NCI-H2228,0.552,0.601,0.681,0.572,0.726,,0.229,0.291,0.228,0.185,1.13,0.953,1.01,0.688,1.05,0.553,0.645,0.774,0.759,0.897
NCI-H441,0.506,0.589,0.563,0.584,0.541,0.679,0.604,0.561,0.768,0.493,0.701,0.478,0.667,0.501,0.387,0.203,0.266,0.213,0.218,0.222
NCI-H1666,0.93,0.557,0.865,0.671,0.838,0.498,0.622,0.571,0.641,0.628,1.03,0.696,0.932,0.8,1.03,0.574,0.644,0.655,0.654,0.606
NCI-H2347,0.999,0.831,0.912,0.896,0.947,0.463,0.415,0.613,0.611,0.503,0.794,0.775,0.724,0.695,0.729,0.44,0.404,0.444,0.477,0.411
HCC-366,0.511,0.623,0.536,0.572,0.574,0.0975,0.116,0.124,0.354,0.0739,1.09,1.01,0.968,0.942,1.1,0.352,0.369,0.371,0.341,0.371
NCI-H2009,1.27,1.17,1.16,1.14,1.22,0.65,0.514,0.741,0.73,0.64,1.22,1.07,1.2,1.1,1.31,0.145,0.235,0.205,0.2,0.211
NCI-H460,,0.806,0.664,0.527,0.72,0.309,0.381,0.422,0.411,0.195,,1.02,1.06,1.03,1.12,0.147,0.11,0.121,0.131,0.092
NCI-H2085,0.929,0.871,0.854,0.779,0.965,0.859,0.817,0.96,0.907,0.751,1.13,0.984,1.15,0.932,1.11,0.454,0.477,0.471,0.479,0.476
HCC-15,0.928,0.84,0.909,0.83,0.921,0.208,0.515,0.391,0.327,0.318,0.723,0.702,0.719,0.721,0.65,0.679,0.782,0.703,0.718,0.675
NCI-H2405,,0.938,1.01,0.923,0.885,0.523,0.807,0.716,0.689,0.656,,0.734,0.847,0.833,0.69,0.529,0.569,0.504,0.503,
NCI-H2126,0.715,0.668,0.701,0.661,0.733,0.736,0.801,0.856,0.856,0.754,0.928,0.803,0.861,0.749,0.817,0.357,0.373,0.33,0.313,0.357
NCI-H838,1.07,0.981,1.03,0.888,1.1,,0.267,0.293,0.274,0.267,1.2,1.1,1.12,1.11,1.2,0.22,0.235,0.225,0.224,0.191
EPLC-272H,,1.11,1.18,1.08,1.24,0.135,,0.346,0.235,0.272,,1.08,0.999,1.22,1.16,,0.35,0.317,0.302,0.355

Cell Line,relative viability ([1]; first compound 0.02 µM),relative viability ([1]; first compound 0.06325 µM),relative viability ([1]; first compound 0.2 µM),relative viability ([1]; first compound 0.6325 µM),relative viability ([1]; first compound 2 µM),relative viability ([2]; first compound 0.08 µM),relative viability ([2]; first compound 0.253 µM),relative viability ([2]; first compound 0.8 µM),relative viability ([2]; first compound 2.53 µM),relative viability ([2]; first compound 8 µM),relative viability ([3]; first compound 0.02 µM),relative viability ([3]; first compound 0.06325 µM),relative viability ([3]; first compound 0.2 µM),relative viability ([3]; first compound 0.6325 µM),relative viability ([3]; first compound 2 µM),relative viability ([4]; first compound 0.02 µM),relative viability ([4]; first compound 0.2 µM),relative viability ([4]; first compound 0.6325 µM),relative viability ([4]; first compound 2 µM),relative viability ([4]; first compound 0.06325 µM)
NCI-H1975,0.933,0.951,1.03,0.88,0.931,0.69,0.852,0.707,0.692,0.551,1.07,1.14,1.22,0.942,0.981,0.533,0.513,0.543,0.535,0.544
NCI-H3122,1.04,1.01,0.983,1.04,1.06,,0.327,0.397,0.352,0.382,0.982,0.998,0.998,1,1.01,0.166,0.207,0.179,0.192,0.147
PC-14,1.02,0.915,0.953,0.86,0.926,0.302,0.548,0.561,0.638,0.486,0.991,1.05,0.937,0.895,0.898,,0.51,0.465,0.523,0.514
COR-L 105,0.984,0.86,0.982,0.915,0.915,0.351,0.355,0.328,0.416,0.319,0.688,0.817,0.712,0.615,0.928,0.402,0.4,0.375,0.444,0.47
LU99A,0.579,0.61,0.565,0.475,0.525,,0.254,0.298,0.277,0.298,0.761,0.779,0.832,0.657,0.863,0.495,0.418,0.381,0.451,0.399
HCC-78,0.612,0.53,0.592,0.36,0.541,0.34,0.329,0.397,0.395,0.38,0.892,0.77,0.881,0.646,0.648,0.459,0.454,0.456,0.442,0.458
NCI-H1651,0.854,1.01,0.984,0.82,0.805,0.574,0.717,0.799,0.713,0.645,1.04,1.05,1.1,1.01,0.916,0.513,0.52,0.499,0.485,0.497
LOU-NH91,0.9,0.932,0.971,0.901,1.02,0.407,0.693,0.66,0.64,0.587,0.539,0.643,0.672,0.689,0.703,0.538,0.552,0.574,0.538,0.546
NCI-H1395,,0.987,0.853,0.745,0.716,0.673,0.817,0.761,0.781,0.565,,1.05,1.01,1.11,0.899,0.606,0.614,0.565,0.554,0.58
COR-L23,1.1,0.886,0.9,0.656,0.816,0.167,0.197,0.203,0.201,0.169,1.15,0.957,0.899,0.86,0.999,0.27,0.252,0.25,0.27,0.237
NCI-H1793,0.864,0.804,0.956,0.728,0.828,,0.337,0.297,0.398,0.3,0.435,0.602,0.424,0.376,0.396,0.31,0.336,0.348,0.331,0.292
201T,1.08,1.06,0.995,1.02,1.01,0.677,0.976,0.998,0.877,0.943,1.21,1.21,1.17,1.19,1.15,0.352,0.364,0.356,0.373,0.353
LK-2,0.689,0.592,0.476,0.558,0.548,,0.196,0.197,0.157,0.174,0.713,0.876,1.24,0.831,0.823,0.662,0.707,0.616,0.779,0.608
A-427,1.21,1.05,1.04,1.03,1.14,,0.234,0.212,0.202,0.185,1.05,0.795,0.93,0.938,0.893,0.507,0.529,0.5,0.593,0.51
LCLC-97TM1,0.185,0.187,0.194,,0.25,0.16,0.219,0.193,0.196,0.209,0.425,0.32,0.387,,0.476,0.219,0.233,0.23,0.249,0.194
HOP-62,1,0.923,0.738,0.987,0.983,0.304,0.353,0.392,0.33,0.349,1.05,1,1.06,0.937,1.03,0.384,0.483,0.343,0.368,0.333
